Laboratory results taken from patent US20250282736A1, “SMALL MOLECULE MODULATORS OF HUMAN PREGNANE X RECEPTOR” (ST. JUDE CHILDREN'S RESEARCH HOSPITAL, priority 2022, published 2025).
Where two headings read alike, the source gives them in different places.

Tests used:
hPXR [1] = biological target: T1, hPXR (Homo sapiens (Human), UniProt O75469); experiment: cell-based hPXR inverse agonistic assay; details: for inhibition at 10 µM: read-out: Inverse agonist (% inhibition at 10 μM)
hPXR [2] = biological target: T1, hPXR; experiment: cell-based hPXR agonistic assay; details: for Agonist (% activation at 10 μM): rifampicin at 10 μM as 100% activation, DMSO (0.3%) as 0%
hPXR [3] = biological target: T1, hPXR; experiment: hPXR binding assay; details: for inhibition at 10 µM: read-out: Binding (% inhibition at 10 μM)
hPXR [4] = biological target: T1, hPXR; experiment: cell-based hPXR antagonistic assay; details: for inhibition at 10 µM: read-out: Antagonist (% inhibition at 10 μM)
[5] = read-out: Binding (IC50/μM), hPXR binding assay
[6] = read-out: Agonist (EC50/μM), cell-based hPXR agonistic assay

T1 sequence (O75469 whole entry): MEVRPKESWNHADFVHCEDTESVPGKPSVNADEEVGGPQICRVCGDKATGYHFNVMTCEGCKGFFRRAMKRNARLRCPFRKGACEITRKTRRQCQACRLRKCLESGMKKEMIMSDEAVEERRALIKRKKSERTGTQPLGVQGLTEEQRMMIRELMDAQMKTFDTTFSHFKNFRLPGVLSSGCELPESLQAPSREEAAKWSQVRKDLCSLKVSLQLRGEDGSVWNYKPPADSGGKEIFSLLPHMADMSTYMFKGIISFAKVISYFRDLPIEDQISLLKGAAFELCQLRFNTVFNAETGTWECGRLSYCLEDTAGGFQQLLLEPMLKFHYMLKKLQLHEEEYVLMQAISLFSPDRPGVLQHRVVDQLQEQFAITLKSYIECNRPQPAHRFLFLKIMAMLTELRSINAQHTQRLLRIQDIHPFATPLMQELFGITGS

SMILES	IC50 (hPXR [1])	inhibition at 10 µM (hPXR [1])	EC50 (hPXR [2])	inhibition at 10 µM (hPXR [3])	IC50 (hPXR [3]; [5])	IC50 (hPXR [4])	inhibition at 10 µM (hPXR [4])	Agonist (% activation at 10 μM) (hPXR [2])	EC50 (hPXR [2]; [6])	IC50 (hPXR [3])
COc1ccc(C)cc1-n1nnc(C(=O)Nc2ccc(O)c(C(C)(C)C)c2)c1C [G2, N-(3-(tert-butyl)-4-hydroxyphenyl)-1-(2-methoxy-5-methylphenyl)-5-methyl-1H-1,2,3-triazole-4-carboxamide]	0.48 µM	115%	> 30 µM	75%	1.93 ± 0.3 µM	0.93 ± 0.11 µM	108%	–	–	–
COc1ccc(C)cc1-n1nnc(C(=O)Nc2ccc(OC)c(C(C)(C)C)c2)c1C [G3]	0.82 µM	111%	> 30 µM	71%	1.08 ± 0.36 µM	1.7 µM	105%	–	–	–
COc1ccc(C)cc1-n1nnc(C(=O)Nc2cc(C(C)(C)C)cc(C(C)(C)C)c2)c1C [G4]	0.074 ± 0.013 µM	101%	> 30 µM	74%	0.1 µM	0.2 µM	104%	–	–	–
COc1ccc(C)cc1-n1nnc(C(=O)Nc2cc(N)cc(C(C)(C)C)c2)c1C [G5, N-(3-amino-5-(tert-butyl)phenyl)-1-(2-methoxy-5-methylphenyl)-5-methyl-1H-1,2,3-triazole-4-carboxamide]	18.9 ± 3.74 µM	47%	> 30 µM	57%	5.62 ± 0.49 µM	7.05 ± 3.48 µM	79%	–	–	–
CCCCNc1cc(NC(=O)c2nnn(-c3cc(C)ccc3OC)c2C)cc(C(C)(C)C)c1 [G6]	0.044 ± 0.014 µM	79%	> 30 µM	87%	0.25 µM	0.15 µM	104%	–	–	–
COc1ccc(C)cc1-n1nnc(C(=O)Nc2cc(O)cc(C(C)(C)C)c2)c1C [G7, N-(3-(tert-butyl)-5-hydroxyphenyl)-1-(2-methoxy-5-methylphenyl)-5-methyl-1H-1,2,3-triazole-4-carboxamide]	0.64 µM	75%	> 30 µM	81%	2.29 ± 0.83 µM	1.31 ± 0.23 µM	103%	–	–	–
COc1cc(NC(=O)c2nnn(-c3cc(C)ccc3OC)c2C)cc(C(C)(C)C)c1 [G8]	0.2 µM	115%	> 30 µM	57%	0.53 µM	0.64 ± 0.1 µM	109%	–	–	–
CCCCOc1cc(NC(=O)c2nnn(-c3cc(C)ccc3OC)c2C)cc(C(C)(C)C)c1 [G9]	0.15 ± 0.04 µM	96%	> 30 µM	62%	0.21 µM	0.4 µM	105%	–	–	–
CCC(C)Oc1ccc(C(C)(C)C)cc1NC(=O)c1nnn(-c2cc(C)ccc2OC)c1C (stereo not drawn) [G12]	> 30 µM	–	0.018 µM	92%	0.0076 ± 0.0031 µM	0.0094 µM	73%	(17 ± 1)%	–	–
CCCCOc1ccc(C(C)(C)C)cc1NC(=O)c1nnn(-c2cc(OC)ccc2F)c1C [H8]	> 30 µM	–	–	18%	0.053 ± 0.036 µM	> 30 µM	–	(48 ± 1)%	1.48 ± 0.17 µM	–
CCCCOc1ccc(C(C)(C)C)cc1NC(=O)c1nnn(-c2cc(OC)ccc2Br)c1C [H10]	> 30 µM	–	> 30 µM	28%	1.31 µM	> 30 µM	–	–	–	–
CCCCOc1ccc(C(C)(C)C)cc1NC(=O)c1nnn(-c2cc(OC)ccc2C)c1C [H11]	> 30 µM	–	1.68 ± 0.34 µM	10%	0.12 µM	> 30 µM	–	(16 ± 6)%	–	–
CCCCOc1ccc(C(C)(C)C)cc1NC(=O)c1nnn(-c2cccnc2)c1C [H12]	> 30 µM	–	–	75%	7.6 ± 2.06 µM	> 30 µM	–	(44 ± 4)%	4.28 ± 1.36 µM	–
CCCCOc1ccc(C(C)(C)C)cc1NC(=O)c1nnn(-c2ccncc2)c1C [H13]	> 30 µM	–	> 30 µM	–	–	> 30 µM	–	–	–	> 30 µM
CCCCOc1ccc(C(C)(C)C)cc1NC(=O)c1nnn(-c2cc(OC)cc(OC)c2)c1C [H16]	> 30 µM	–	–	–	–	> 30 µM	–	(32 ± 4)%	2.77 ± 0.47 µM	> 30 µM
CCCCOc1ccc(C(C)(C)C)cc1NC(=O)c1nnn(-c2ccc3c(c2)OCO3)c1C [H18]	> 30 µM	–	–	–	–	> 30 µM	–	(43 ± 8)%	4.61 ± 1.18 µM	> 30 µM
CCCC(CC)Oc1ccc(C(C)(C)C)cc1NC(=O)c1nnn(-c2ccccc2OC)c1C (stereo not drawn) [I1]	> 30 µM	–	0.01 µM	89%	0.0062 ± 0.0001 µM	0.031 µM	84%	(8 ± 2)%	–	–
CCCC(C)Oc1ccc(C(C)(C)C)cc1NC(=O)c1nnn(-c2ccccc2OC)c1C (stereo not drawn) [I2]	> 30 µM	–	0.049 ± 0.008 µM	88%	0.0072 ± 0.0001 µM	0.032 µM	78%	(23 ± 19)%	–	–
CCC(C)Oc1ccc(C(C)(C)C)cc1NC(=O)c1nnn(-c2ccccc2OC)c1C (stereo not drawn) [I3]	> 30 µM	–	0.066 ± 0.013 µM	88%	0.0085 ± 0.0011 µM	0.061 ± 0.011 µM	66%	(25 ± 3)%	–	–
COc1ccc(OC)c(-n2nnc(C(=O)Sc3ccc(NC(C)=O)cc3)c2C)c1 [K2]	> 30 µM	–	> 30 µM	38%	8.47 ± 0.78 µM	> 30 µM	–	–	–	–
COc1ccc(OC)c(-n2nnc(NC(=O)Nc3ccc(C(C)(C)C)cc3)c2C)c1 [K3]	> 30 µM	–	3.39 ± 0.14 µM	–	–	> 30 µM	–	(61 ± 4)%	–	> 30 µM
COc1ccc(OC)c(-n2nnc(NC(=O)Nc3cccc(C(C)(C)C)c3)c2C)c1 [K4]	> 30 µM	–	1.45 ± 0.25 µM	24%	0.39 ± 0.19 µM	> 30 µM	–	(103 ± 5)%	–	–
COc1ccc(OC)c(-n2nnc(C(=O)NS(=O)(=O)c3ccc(C(C)(C)C)cc3)c2C)c1 [K5, N-((4-(tert-butyl)phenyl)sulfonyl)-1-(2,5-dimethoxyphenyl)-5-methyl-1H-1,2,3-triazole-4-carboxamide]	> 30 µM	–	7.46 ± 1.11 µM	43%	10.7 ± 0.23 µM	> 30 µM	–	(32 ± 2)%	–	–
COc1ccc(OC)c(-n2nnc(S(=O)(=O)Nc3cccc(C(C)(C)C)c3)c2C)c1 [K6, N-(3-(tert-butyl)phenyl)-1-(2,5-dimethoxyphenvl)-5-methyl-1H-1,2,3-triazole-4-sulfonamide]	> 30 µM	–	0.021 µM	97%	0.0147 ± 0.0026 µM	> 30 µM	–	(136 ± 26)%	–	–
COc1ccc(OC)c(-n2nnc(NS(=O)(=O)c3ccc(C(C)(C)C)cc3)c2C)c1 [K7]	> 30 µM	–	0.39 µM	92%	0.33 µM	10.7 ± 2.39 µM	25%	(68 ± 5)%	–	–
